Experiment [1] is described as follows: DRUGMATRIX: Sodium/nucleoside co-transporter radioligand binding (ligand: nitrobenzylthioinosine). Type of experiment: cell membranes, Cavia porcellus, Dunkin-Hartley, Cerebral cortex, Membrane. The conditions noted are these: Not Active = under 50% inhibition at 10 µM.
Experiment [2] concerns the target Protein kinase C alpha type (Homo sapiens, UniProt P17252). It is filed as cell-based. The conditions noted are these: sf9.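 Further: inhibition of PKCalpha kinase activity measured in an enzyme assay with histone as the phosphorylation substrate; in other assays of this panel Not Active means under 50% inhibition at 10 µM.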
Experiment [3] is described as follows: DRUGMATRIX: Serotonin (5-Hydroxytryptamine) 5-HT3 radioligand binding (ligand: [3H] GR-65630). It is filed as cell membranes, Membrane. Conditions: hek293; Not Active = under 50% inhibition at 10 µM.
Experiment [4] concerns the target C-C chemokine receptor type 5 (Homo sapiens, UniProt P51681). It is filed as cell membranes, Membrane. Conditions: hek293. Further: in other assays of this panel Not Active means under 50% inhibition at 10 µM.
Experiment [5] has as its target Platelet-activating factor receptor (Homo sapiens, UniProt P25105). It is filed as tissue-based. Further: in other assays of this panel Not Active means under 50% inhibition at 10 µM.
A short description of experiment [6]: DRUGMATRIX: Calcium Channel Type L, Benzothiazepine radioligand binding (ligand: [3H] Diltiazem). It is filed as cell membranes, Rattus norvegicus, Wistar, Brain, Membrane. The conditions noted are these: Not Active = under 50% inhibition at 10 µM.
Experiment [7] concerns the target T1, Receptor-type tyrosine-protein phosphatase C (Homo sapiens, UniProt P08575).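 Further: inhibition of CD45 enzyme activity measured using DiFMUP as substrate; in other assays of this panel Not Active means under 50% inhibition at 10 µM.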
T1 sequence (P08575 whole entry): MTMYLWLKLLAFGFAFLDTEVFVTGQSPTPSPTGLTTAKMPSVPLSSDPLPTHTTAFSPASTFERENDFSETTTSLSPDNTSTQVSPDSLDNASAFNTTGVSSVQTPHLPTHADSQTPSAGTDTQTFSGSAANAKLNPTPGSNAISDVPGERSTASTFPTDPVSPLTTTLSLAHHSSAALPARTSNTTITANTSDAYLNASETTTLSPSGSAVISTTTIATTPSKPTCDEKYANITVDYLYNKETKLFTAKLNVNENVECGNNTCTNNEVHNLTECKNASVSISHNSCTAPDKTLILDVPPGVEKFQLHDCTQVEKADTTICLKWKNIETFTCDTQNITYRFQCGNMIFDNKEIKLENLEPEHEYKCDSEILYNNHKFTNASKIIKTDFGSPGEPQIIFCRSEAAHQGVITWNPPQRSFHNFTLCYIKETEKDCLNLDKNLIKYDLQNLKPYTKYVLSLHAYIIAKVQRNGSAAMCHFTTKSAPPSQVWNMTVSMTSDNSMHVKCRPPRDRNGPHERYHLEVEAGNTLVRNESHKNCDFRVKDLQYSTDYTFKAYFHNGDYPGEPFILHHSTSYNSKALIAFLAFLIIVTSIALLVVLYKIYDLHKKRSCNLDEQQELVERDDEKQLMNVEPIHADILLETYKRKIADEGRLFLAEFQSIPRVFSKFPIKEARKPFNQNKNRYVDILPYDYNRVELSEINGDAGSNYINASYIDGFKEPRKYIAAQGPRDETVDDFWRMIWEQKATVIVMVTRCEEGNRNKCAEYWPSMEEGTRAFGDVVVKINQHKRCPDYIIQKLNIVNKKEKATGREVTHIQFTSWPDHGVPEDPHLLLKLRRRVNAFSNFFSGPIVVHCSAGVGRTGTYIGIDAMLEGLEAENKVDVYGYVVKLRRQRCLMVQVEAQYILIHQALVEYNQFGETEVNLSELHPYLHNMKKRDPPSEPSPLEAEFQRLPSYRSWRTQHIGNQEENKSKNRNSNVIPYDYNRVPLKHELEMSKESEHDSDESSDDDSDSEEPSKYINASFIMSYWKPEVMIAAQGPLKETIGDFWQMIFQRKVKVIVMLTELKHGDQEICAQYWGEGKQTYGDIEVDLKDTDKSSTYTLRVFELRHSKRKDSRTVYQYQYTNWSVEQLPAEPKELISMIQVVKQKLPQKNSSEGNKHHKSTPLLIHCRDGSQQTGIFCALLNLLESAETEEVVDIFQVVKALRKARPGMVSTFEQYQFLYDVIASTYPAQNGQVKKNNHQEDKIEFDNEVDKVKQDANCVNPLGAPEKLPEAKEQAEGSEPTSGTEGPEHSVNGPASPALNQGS
The arrangement: species or system Escherichia coli.

The next experiment concerns the target T2, B2 bradykinin receptor (Homo sapiens, UniProt P30411). Further: in other assays of this panel Not Active means under 50% inhibition at 10 µM.
T2 sequence (P30411 whole entry): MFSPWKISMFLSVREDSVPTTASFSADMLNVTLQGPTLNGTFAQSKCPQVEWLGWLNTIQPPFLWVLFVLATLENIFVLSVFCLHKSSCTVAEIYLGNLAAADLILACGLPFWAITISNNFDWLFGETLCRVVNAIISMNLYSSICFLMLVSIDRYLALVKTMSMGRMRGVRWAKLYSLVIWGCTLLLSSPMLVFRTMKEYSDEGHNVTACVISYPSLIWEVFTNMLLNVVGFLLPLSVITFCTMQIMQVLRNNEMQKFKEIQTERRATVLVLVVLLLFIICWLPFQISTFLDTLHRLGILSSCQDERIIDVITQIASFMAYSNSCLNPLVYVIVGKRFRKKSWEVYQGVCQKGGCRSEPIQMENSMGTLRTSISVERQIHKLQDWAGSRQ
Type of experiment: cell membranes, Membrane. Conditions: chem-1.

Usually IC50 stands for the concentration that gives 50% inhibition. Usually Ki stands for the equilibrium dissociation constant of an inhibitor or competing ligand from its target.

Sequence of Platelet-activating factor receptor (P25105 whole entry): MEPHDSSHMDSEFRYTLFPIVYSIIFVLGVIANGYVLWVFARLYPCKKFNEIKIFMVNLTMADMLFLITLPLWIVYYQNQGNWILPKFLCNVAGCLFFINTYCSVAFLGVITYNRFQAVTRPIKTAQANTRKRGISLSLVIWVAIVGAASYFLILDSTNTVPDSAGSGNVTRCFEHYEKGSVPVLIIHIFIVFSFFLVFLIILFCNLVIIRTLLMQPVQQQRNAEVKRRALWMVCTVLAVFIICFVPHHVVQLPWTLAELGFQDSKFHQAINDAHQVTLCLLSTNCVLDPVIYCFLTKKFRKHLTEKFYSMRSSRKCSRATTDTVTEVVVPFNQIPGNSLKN
Sequence of C-C chemokine receptor type 5 (P51681 whole entry): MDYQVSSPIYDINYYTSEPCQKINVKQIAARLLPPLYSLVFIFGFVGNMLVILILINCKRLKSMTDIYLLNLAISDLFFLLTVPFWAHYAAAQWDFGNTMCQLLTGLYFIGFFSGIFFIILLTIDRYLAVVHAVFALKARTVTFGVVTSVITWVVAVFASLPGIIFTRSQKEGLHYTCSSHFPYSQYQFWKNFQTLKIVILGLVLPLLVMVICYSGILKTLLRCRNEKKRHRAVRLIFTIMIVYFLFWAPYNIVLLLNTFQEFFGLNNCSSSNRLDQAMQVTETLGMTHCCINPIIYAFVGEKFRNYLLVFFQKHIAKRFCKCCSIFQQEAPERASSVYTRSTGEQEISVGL

As for `Nc1c2c(nc3ccccc13)CCCC2` [TACRINE], the IC50 result in experiment [1], in experiment [2], in experiment [3], in experiment [4], in experiment [5] and in experiment [6] was “Not Active” throughout. Also, the IC50 entry (in experiment [7]; against B2 bradykinin receptor) was “Not Active” throughout. Also, the Ki entry in experiment [1], in experiment [3] and in experiment [6] was “Not Active” in each case.
Consider `NC[C@H]1CC[C@H](C(=O)O)CC1` [TRANEXAMIC ACID], for which the IC50 result in experiment [1], in experiment [2], in experiment [3], in experiment [4], in experiment [5] and in experiment [6] was “Not Active” each time. Moreover, the IC50 result (in experiment [7]; against B2 bradykinin receptor) was “Not Active” throughout. Moreover, the inhibitory constant (Ki) entry in experiment [1], in experiment [3] and in experiment [6] was “Not Active” in each case.
As for `CCOC(=O)N1CCC(=C2c3ccc(Cl)cc3CCc3cccnc32)CC1` [LORATADINE], the IC50 entry in experiment [1], in experiment [2], in experiment [3], in experiment [4], in experiment [5] and in experiment [6] was “Not Active” throughout. Also, the IC50 entry (in experiment [7]; against B2 bradykinin receptor) was “Not Active” throughout. Further, the Ki result in experiment [1], in experiment [3] and in experiment [6] was “Not Active” each time.
With `c1ccc([C@H]2CN3CCSC3=N2)cc1` [LEVAMISOLE], the IC50 entry in experiment [1], in experiment [2], in experiment [3], in experiment [4], in experiment [5] and in experiment [6] was “Not Active” throughout. Further, the IC50 entry (in experiment [7]; on B2 bradykinin receptor) was “Not Active” throughout. Besides, the Ki result in experiment [1], in experiment [3] and in experiment [6] was “Not Active” throughout.
For the molecule `CC(C)N1CCN(c2ccc(OCC3COC(Cn4cncn4)(c4ccc(Cl)cc4Cl)O3)cc2)CC1` (centres undefined) [TERCONAZOLE], the IC50 in experiment [1] (read-out: IC50) was 12.4 µM; in experiment [2], “Not Active”; in experiment [3], “Not Active”; in experiment [4] it was “Not Active”; in experiment [5] it was “Not Active”; in experiment [6] (read-out: IC50), 3.01 µM. Moreover, the IC50 entry (in experiment [7]; at B2 bradykinin receptor) was “Not Active” in each case. For the same molecule, the Ki in experiment [1] (read-out: Ki) was 4.24 µM; in experiment [3], “Not Active”; in experiment [6] (read-out: Ki), 2.67 µM.
As for SODIUM NITROPRUSSIDE, the 50% inhibitory concentration (IC50) result in experiment [1], in experiment [2], in experiment [3], in experiment [4], in experiment [5] and in experiment [6] was “Not Active” in each case. Besides, the IC50 entry (in experiment [7]; at B2 bradykinin receptor) was “Not Active” in each case. For the same molecule, the Ki entry in experiment [1], in experiment [2], in experiment [3], in experiment [4], in experiment [5] and in experiment [6] was “Not Active” throughout. The Ki entry (in experiment [7]; on B2 bradykinin receptor) was “Not Active” each time.
On to `CO[C@H]1/C=C/O[C@@]2(C)Oc3c(C)c(O)c4c(O)c(c(/C=N/N5CCN(C)CC5)c(O)c4c3C2=O)NC(=O)/C(C)=C\C=C\[C@H](C)[C@H](O)[C@@H](C)[C@@H](O)[C@@H](C)[C@H](OC(C)=O)[C@@H]1C` [RIFAMPIN], for which the IC50 result in experiment [1], in experiment [2], in experiment [3], in experiment [4], in experiment [5] and in experiment [6] was “Not Active” throughout. Besides, the IC50 entry (in experiment [7]; on B2 bradykinin receptor) was “Not Active” each time. The Ki result in experiment [1], in experiment [3] and in experiment [6] was “Not Active” in each case.
On to `Cc1oncc1C(=O)Nc1ccc(C(F)(F)F)cc1` [LEFLUNOMIDE], for which the IC50 was 15.1 µM in experiment [1] (read-out: IC50); “Not Active” in experiment [2]; “Not Active” in experiment [3]; “Not Active” in experiment [4]; “Not Active” in experiment [5]; “Not Active” in experiment [6]. For the same molecule, the IC50 entry (in experiment [7]; at B2 bradykinin receptor) was “Not Active” throughout. For the same molecule, the results for the Ki in experiment [1] (read-out: Ki), in experiment [3] and in experiment [6] were 5.16 µM, “Not Active” and “Not Active”, respectively.
As to `N#CC(C#N)=Cc1ccc(O)c(O)c1` [TYRPHOSTIN 23], the IC50 result in experiment [1], in experiment [2], in experiment [3], in experiment [4], in experiment [5] and in experiment [6] was “Not Active” each time. Further, the IC50 result (in experiment [7]; at B2 bradykinin receptor) was “Not Active” throughout. Also, the Ki entry in experiment [1], in experiment [3] and in experiment [6] was “Not Active” each time.

The values are drawn from ChEMBL document CHEMBL1909046, “DrugMatrix in vitro pharmacology data”.
